Measured values as given in US9687477B2 (priority 2011, dated 2017).

What was measured:
[1] = tested on: Influenza A/WSN/33 virus (H1N1); test: microbe, parasite or virus in culture; type: cell-based

Structure (SMILES) | production of infectious influenza virus particles (virus titer, plaque assay) [1] | influenza viral protein expression (influenza virus) | influenza viral protein expression (NP, NS1, NS2, M1, M2) (influenza virus)
CCCCCCCCCCCCC/C=C/[C@@H](O)[C@H](CO)N(C)C [DMS, D-erythro-N,N-dimethylsphingosine] | suppressed the production of infectious influenza virus particles | inhibition was also observed | inhibited influenza viral protein expression
Oc1ccc(Nc2nc(-c3ccc(Cl)cc3)cs2)cc1 [SKI-II, 4-[4-(4-Chloro-phenyl)-thiazol-2-ylamino]-phenol] | suppressed the production of infectious influenza virus particles | inhibition was also observed | inhibited influenza viral protein expression
